Patent US10464941B2, “Therapeutic compounds” (REGENTS OF THE UNIVERSITY OF MINNESOTA, priority 2015, dated 2019)
Several values for one entry are separate records, joined by “and”; a condition that tells them apart may be missing. Equal entries are not always repeated. Marks after values point to notes of the source that are not given here.

Tested on: LPS-pretreated mice
Assay: animal or person
Settings: for LPS pretreated i.c.v./i.t. ratio / LPS pretreated ED50 (CI) i.t.: LPS 1 mg/kg 24 hours i.p.; for LPS pretreated ED50 (CI) i.t.: tail flick
Protocol: Male ICR-CD1 mice (17-25 g; Harlan, Madison, Wis.), C3H mice (15-20 g, National Cancer Institute, Bethesda, Md.) or TLR4 knock-out mice (gift from Dr. Sabita Roy) were housed, 4 to a small box in a temperature- and humidity-controlled environment with unlimited access to food and water. They were maintained on a 12 h light/dark cycle. All experiments were approved by the Institutional Animal Care and Use Committee of the University of Minnesota (Minneapolis, Minn.).
The tail flick assay is used to test for antinociception described by D'Amour and Smith^64 and modified by Dewey et. al.^65 Mice are held gently in one hand with the tail positioned in the apparatus (Tail Flick Analgesia Meter, Columbus Instruments, Columbus, Ohio) for radiant heat stimulus. The tail-flick response is elicited by applying radiant heat to the dorsal side of the tail. The test latency is measured before drug treatment (control) and again after the drug treatment (test) at the peak time of the compound, a 10 s maximum cut-off time is used to prevent damage to the tail. Antinociception is quantified according to the method of Harris and Pierson^66 as the percent maximal possible effect (% MPE) which is calculated as: % MPE=(Test−Control/10−Control)×100
A minimum of three groups of eight to ten mice are used for each dose response curve, and each mouse is used only once.
The compounds were tested for acute tolerance by comparing the ED80-90 dose measured on day 1 to the same dose administered and retested 24 hours later on the same mouse.
Compounds were dissolved in 5% DMSO and diluted to less than 1% DMSO for injection. These compounds were administered in a volume of 5-μl either i.c.v (Haley and McCormick) or intrathecal (i.t.) as described for mice by Hylden and Wilcox^67 in conscious mice. […] Time course studies, including the times 5, 10, 20, 30 and 60 minutes were used to determine the peak antinociception.
Pain is a hallmark of many inflammatory conditions. […] Antinociception was evaluated using the radiant heat-induced tailflick assay. Morphine was employed as a standard opioid agonist under these conditions.

## Cc1ccc(N(CCCN2CCC(Cc3ccc(C(N)=O)cc3)CC2)C(=O)C2CCN(C(=O)COCC(=O)NCCCCCCCCCCNC(=O)COCC(=O)N[C@H]3CC[C@@]4(O)C5Cc6ccc(O)c7c6[C@@]4(CCN5C)[C@H]3O7)CC2)cc1Cl [Compound 3e, N-(3-(4-(4-carbamoylbenzyl)piperidin-1-yl)propyl)-N-(3-chloro-4-methylphenyl)-1-(22-(((4aS,7S,7aR,12bS)-4a,9-dihydroxy-3-methyl-2,3,4,4a,5,6,7,7a-octahydro-1H-4,12-methanobenzofuro[3,2-e]isoquinolin-7-yl)amino)-5,18,22-trioxo-3,20-dioxa-6,17-diazadocosan-1-oyl)piperidine-4-carboxamide]
  LPS pretreated i.c.v./i.t. ratio: ~34,000^d
i.t.
  LPS pretreated ED50 (CI) i.t.: 0.0149 pmol/mouse
i.t., listed as MCC22
  LPS pretreated ED50 (CI) i.t.: 0.0146 pmol/mouse
  LPS-treated/control potency ratio: 3070 and 3131
Listed as MCC22
  LPS pretreated i.c.v./i.t. ratio: 34,000 and 34,223
LPS pretreated mice
  FIG. 4 LPS/MCC22 (value with interval): 0.015 (0.01-0.03)
LPS pretreated, i.c.v., 500 pmol/mouse
  percent maximal possible effect at highest dose measured: 41.1 ± 12.9%
LPS-pretreated TLR4 KO mice
  potency in TLR4 KO mice: not reduced
LPS-pretreated mice treated i.t. with NMDA receptor antagonist MK801, then MCC22
  effect of MK801 on antinociception: virtually no effect
LPS-pretreated mice, i.t.
  i.t. potency ratio, morphine/MCC22: 2400
Mus musculus, ip, read-out: ED50 i.p.
  ED50: 5.6 µmol/kg
i.t., LPS thermal hyperalgesia model
  ED50 values (95% CI) LPS (thermal): 0.015 pmol/mouse
i.t., LPS-pretreated mice
  potency increase over 19-atom spacer homologue 3c: > 700 fold
  tolerance upon repeated administration: without signs of tolerance
i.t., LPS-pretreated mice, listed as MCC22
  potency increase over 19-atom spacer homologue 3c: at least 700 fold
Inflamed mice pretreated with β-FNA
  ED50 potency ratio (β-FNA-treated/control): 96.6
mouse, in vivo
  Relative Potency relative to a mixture of monovalent mu agonist (4) and CCR5 antagonist (2): ~3500
  potency relative to morphine or monovalent control ligand 4: ~1500 fold
mouse, in vivo, listed as MCC22
  Relative Potency relative to a mixture of monovalent mu agonist (4) and CCR5 antagonist (2): 3500
